Target: T1, Calpain-1 catalytic subunit (Homo sapiens, UniProt P07384)
T1 sequence (P07384 whole entry): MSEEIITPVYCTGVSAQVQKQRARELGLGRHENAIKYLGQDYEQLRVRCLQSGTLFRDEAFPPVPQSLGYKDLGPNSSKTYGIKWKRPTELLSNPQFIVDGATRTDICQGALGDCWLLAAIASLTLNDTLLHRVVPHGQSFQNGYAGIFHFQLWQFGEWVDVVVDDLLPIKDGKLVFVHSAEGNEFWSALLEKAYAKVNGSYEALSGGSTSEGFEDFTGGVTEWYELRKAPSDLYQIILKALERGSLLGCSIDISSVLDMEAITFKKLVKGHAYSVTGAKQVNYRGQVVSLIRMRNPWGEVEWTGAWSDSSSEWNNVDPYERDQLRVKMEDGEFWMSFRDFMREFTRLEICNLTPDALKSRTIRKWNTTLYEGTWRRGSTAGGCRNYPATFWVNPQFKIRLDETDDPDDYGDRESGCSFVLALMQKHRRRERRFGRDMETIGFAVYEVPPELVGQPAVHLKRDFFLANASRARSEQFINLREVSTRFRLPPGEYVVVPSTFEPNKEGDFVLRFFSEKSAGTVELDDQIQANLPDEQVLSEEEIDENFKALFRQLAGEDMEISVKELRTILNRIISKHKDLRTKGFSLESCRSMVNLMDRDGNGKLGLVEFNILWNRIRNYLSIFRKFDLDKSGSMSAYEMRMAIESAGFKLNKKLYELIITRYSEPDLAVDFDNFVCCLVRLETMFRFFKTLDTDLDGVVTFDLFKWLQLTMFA
Assay: Inhibition of human erythrocytes mu-calpain

An IC50 of 4250 nM was found for `COCOc1cc(OC)ccc1C(=O)CCC(=O)N[C@@H](Cc1ccccc1)C(=O)C(=O)NCc1ccccc1` in this work.
An IC50 of 6160 nM was found for `COc1ccc(C(=O)CCC(=O)N[C@@H](Cc2ccccc2)C(=O)C(=O)NCc2ccccc2)c(OC)c1` in this work.
An IC50 of 2350 nM was found for `COc1ccc(CNC(=O)C(=O)[C@H](Cc2ccccc2)NC(=O)CCC(=O)c2cc(OC)ccc2OC)cc1` in this work.
An IC50 of 4290 nM was found for `COCOc1ccccc1C(=O)CCC(=O)N[C@@H](Cc1ccccc1)C(=O)C(=O)NCc1ccccc1` in this work.
An IC50 of 2090 nM was found for `COc1ccc(OC)c(C(=O)CCC(=O)N[C@@H](Cc2ccccc2)C(=O)C(=O)NCCc2ccccc2)c1` in this work.
An IC50 of 8000 nM was found for `COc1ccc(OC)c(CCCC(=O)N[C@@H](Cc2ccccc2)C(=O)C(=O)NCc2ccccc2)c1` in this work.
An IC50 of 13000 nM was found for `COc1ccc(C(=O)CCC(=O)N[C@@H](Cc2ccccc2)C(=O)C(=O)NCc2ccccc2)c(O)c1` in this work.
An IC50 of 1860 nM was found for `COc1ccc(OC)c(CCCC(=O)N[C@@H](Cc2ccccc2)C(=O)C(N)=O)c1` in this work.
An IC50 of 3330 nM was found for `COc1ccccc1C(=O)CCC(=O)N[C@@H](Cc1ccccc1)C(=O)C(=O)NCc1ccccc1` in this work.
An IC50 of 2130 nM was found for `COc1ccc(OC)c(C(=O)CCC(=O)N[C@@H](Cc2ccccc2)C(=O)C(=O)NCCc2ccc(OC)c(OC)c2)c1` in this work.
An IC50 of 520 nM was found for `COc1ccc(OC)c(C(=O)CCC(=O)N[C@@H](Cc2ccccc2)C(=O)C(N)=O)c1` in this work.
An IC50 of 5730 nM was found for `O=C(CCC(=O)c1ccc(O)cc1O)N[C@@H](Cc1ccccc1)C(=O)C(=O)NCc1ccccc1` in this work.
An IC50 of 340 nM was found for `COCOc1ccccc1C(=O)CCC(=O)N[C@@H](Cc1ccccc1)C(=O)C(N)=O` in this work.
An IC50 of 3200 nM was found for `NC(=O)C(=O)[C@H](Cc1ccccc1)NC(=O)CCC(=O)c1ccccc1` in this work.
An IC50 of 700 nM was found for `COCOc1cc(OC)ccc1C(=O)CCC(=O)N[C@@H](Cc1ccccc1)C(=O)C(N)=O` in this work.
An IC50 of 6250 nM was found for `O=C(CCC(=O)c1ccccc1)N[C@@H](Cc1ccccc1)C(=O)C(=O)NCc1ccccc1` in this work.
An IC50 of 540 nM was found for `COc1ccccc1C(=O)CCC(=O)N[C@@H](Cc1ccccc1)C(=O)C(N)=O` in this work.
An IC50 of 3770 nM was found for `COc1ccc(OC)c(C(=O)CCC(=O)N[C@@H](Cc2ccccc2)C(=O)C(=O)NCc2ccccc2)c1` in this work.
An IC50 of 1180 nM was found for `COc1ccc(C(=O)CCC(=O)N[C@@H](Cc2ccccc2)C(=O)C(N)=O)c(OC)c1` in this work.
An IC50 of 13800 nM was found for `O=C(CCC(=O)c1ccccc1O)N[C@@H](Cc1ccccc1)C(=O)C(=O)NCc1ccccc1` in this work.
An IC50 of 950 nM was found for `COc1ccc(CCNC(=O)C(=O)[C@H](Cc2ccccc2)NC(=O)CCC(=O)c2cc(OC)ccc2OC)cc1` in this work.
An IC50 of 1640 nM was found for `COc1ccc(OC)c(C(=O)CCC(=O)N[C@@H](Cc2ccccc2)C(=O)C(=O)NCc2ccc(OC)c(OC)c2)c1` in this work.

— ChEMBL document CHEMBL1154513, “Design and synthesis of 4-aryl-4-oxobutanoic acid amides as calpain inhibitors” (Bioorg Med Chem Lett, 2009)
